# Legend:
# human thrombin = molecular target: T1, human thrombin (Homo sapiens, UniProt P00734); test: Inhibition of amidase activity of thrombin (Kass), chromogenic substrate; format: biochemical; details: apparent association constant, mean over a range of concentrations
# T1 construct: purified human thrombin, Enzyme Research Laboratories; purchased Enzyme Research Laboratories, South Bend, Indiana
# Procedure: The assay is carried out by mixing 50 μL buffer (0.03 M Tris, 0.15 M NaCl, pH 7.4) with 25 μL of bovine thrombin or human thrombin solution (0.21 mg/mL of thrombostat bovine thrombin, Parke-Davis, or purified human thrombin, Enzyme Research Laboratories, South Bend, Indiana, at about 8 NIH units/mL, in the same buffer) and 25 μL of test compound in a solvent (in 50% aqueous methanol, v:v). The 150 μL of an aqueous solution of the chromogenic substrate (at 0.25 mg/mL) are added and the rates of hydrolysis of the substrate are measured by monitoring the reactions at 405 nm for the release of p-nitroaniline. Standard curves are constructed by plotting free thrombin concentration against hydrolysis rate. The hydrolysis rates observed with test compounds are then converted to "free thrombin" values in the respective assays by use of the standard curves. The bound thrombin (bound to test compound) is calculated by subtracting the amount of free thrombin observed in each assay from the known initial amount of thrombin used in the assay. The amount of free inhibitor in each assay is calculated by subtracting the number of moles of bound thrombin from the number of moles of added inhibitor (test compound).
# The Kass value is the hypothetical equilibrium constant for the reaction between thrombin and the test compound (I). [formula]
# Kass is calculated for a range of concentrations of test compounds and the mean value is reported in units of liter per mole.
# factor Xa = molecular target: T2, factor Xa (Homo sapiens, UniProt P00742); test: Serine protease selectivity, Kass, factor Xa chromogenic assay; format: biochemical; details: apparent association constant
# T2 construct: Human factors X, Xa, IXa, XIa, and XIIa are purchased from Enzyme Research Laboratories; purchased Enzyme Research Laboratories, South Bend, Ind
# T2 sequence (P00742 235-488 limits assumed): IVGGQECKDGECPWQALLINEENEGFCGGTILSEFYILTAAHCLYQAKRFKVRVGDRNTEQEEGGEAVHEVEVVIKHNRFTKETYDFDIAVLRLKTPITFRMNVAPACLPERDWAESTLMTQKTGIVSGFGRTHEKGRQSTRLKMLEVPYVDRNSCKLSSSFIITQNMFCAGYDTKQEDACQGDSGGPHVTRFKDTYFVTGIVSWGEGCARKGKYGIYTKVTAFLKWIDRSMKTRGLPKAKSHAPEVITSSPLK
# T2 sequence (P00742 41-179 partner limits assumed): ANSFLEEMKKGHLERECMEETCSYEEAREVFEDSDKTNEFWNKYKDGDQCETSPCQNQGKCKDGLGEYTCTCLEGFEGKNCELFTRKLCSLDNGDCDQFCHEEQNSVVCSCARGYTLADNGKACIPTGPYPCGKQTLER
# Procedure: (§1) By substantially following the procedures described above for human thrombin, and using other human blood coagulation system serine proteases and proteases of the fibrinolytic system with the appropriate chromogenic substrates, identified below, selectivity of the compounds of the present invention with respect to the coagulation factor serine proteases and with respect to the fibrinolytic system serine proteases are evaluated as well as their substantial lack of interference with serine proteases of the fibrinolytic system. Thrombin inhibitors preferably should spare fibrinolysis induced by urokinase, tissue plasminogen activator (t-PA) and streptokinase. This would be important to the therapeutic use of such agents as an adjunct to streptokinase, t-PA or urokinase thrombolytic therapy and to the use of such agents as an endogenous fibrinolysis-sparing (with respect to t-PA and urokinase) antithrombotic agent. In addition to the lack of interference with the amidase activity of the fibrinolytic proteases, such fibrinolytic system sparing can be studied by the use of human plasma clots and their lysis by the respective fibrinolytic plasminogen activators.
# (§2) Human factors X, Xa, IXa, XIa, and XIIa are purchased from Enzyme Research Laboratories, South Bend, Ind.; human urokinase from Leo Pharmaceuticals, Denmark; and recombinant activated Protein C (aPC) is prepared at Eli Lilly and Co. substantially according to U.S. Pat. No. 4,981,952 incorporated by reference herein in its entirety. Chromogenic substrates: N--Benzoyl--Ile--Glu--Gly--Arg--p--nitroanilide (for factor Xa); N--Cbz--D--Arg--Gly--Arg--p--nitroanilide (for factor IXa assay as the factor Xa substrate); Pyroglutamyl--Pro--Arg--p--nitroanilide (for Factor XIa and for aPC); H--D--Pro--Phe--Arg--p--nitroanilide (for factor XIIa); and Pyroglutamyl--Gly--Arg--p--nitroanilide (for urokinase); are purchased from KabiVitrum, Stockholm, Sweden, or from Midwest Biotech, Fishers, Indiana. Bovine trypsin is purchased from Worthington Biochemicals, Freehold, N.J., and human plasma kallikrein from Kabi Vitrum, Stockholm, Sweden. Chromogenic substrate H--D--Pro--Phe--Arg--p--nitroanilide for plasma kallikrein is purchased from Kabi Vitrum, Stockholm, Sweden. N--Benzoyl--Phe--Val--Arg--p--nitroanilide, the substrate for human thrombin and for trypsin, is synthesized according to procedures described above for the compounds of the present invention, using known methods of peptide coupling from commercially available reactants or purchased from Midwest Biotech, Fishers, Ind.
# Bovine trypsin = molecular target: T3, Bovine trypsin (Bos taurus, UniProt P00760); test: Serine protease selectivity, Kass, trypsin chromogenic assay; format: biochemical; details: apparent association constant
# T3 construct: purchased Worthington Biochemicals, Freehold, N.J
# T3 sequence (P00760 24-246): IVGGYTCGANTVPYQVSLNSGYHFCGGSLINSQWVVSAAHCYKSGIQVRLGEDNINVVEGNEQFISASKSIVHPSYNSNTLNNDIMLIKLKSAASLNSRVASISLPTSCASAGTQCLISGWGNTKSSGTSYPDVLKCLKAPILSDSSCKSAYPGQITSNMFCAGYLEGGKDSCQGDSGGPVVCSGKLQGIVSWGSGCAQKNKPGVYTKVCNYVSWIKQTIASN
# Procedure: as §1, §2
# Human plasmin = molecular target: T4, Human plasmin (Homo sapiens, UniProt P00747); test: Fibrinolytic protease selectivity, Kass, plasmin chromogenic assay; format: biochemical; details: apparent association constant
# T4 construct: Human plasmin is purchased from Boehringer Mannheim; purchased Boehringer Mannheim, Indianapolis, Indiana
# T4 sequence (P00747 581-810 limits assumed): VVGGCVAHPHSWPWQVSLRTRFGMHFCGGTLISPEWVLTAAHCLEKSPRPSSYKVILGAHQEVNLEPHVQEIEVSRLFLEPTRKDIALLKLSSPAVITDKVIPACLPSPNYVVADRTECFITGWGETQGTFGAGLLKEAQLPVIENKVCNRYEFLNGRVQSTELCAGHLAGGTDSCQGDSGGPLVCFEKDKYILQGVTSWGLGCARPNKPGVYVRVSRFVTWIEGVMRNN
# T4 sequence (P00747 97-580 partner limits assumed): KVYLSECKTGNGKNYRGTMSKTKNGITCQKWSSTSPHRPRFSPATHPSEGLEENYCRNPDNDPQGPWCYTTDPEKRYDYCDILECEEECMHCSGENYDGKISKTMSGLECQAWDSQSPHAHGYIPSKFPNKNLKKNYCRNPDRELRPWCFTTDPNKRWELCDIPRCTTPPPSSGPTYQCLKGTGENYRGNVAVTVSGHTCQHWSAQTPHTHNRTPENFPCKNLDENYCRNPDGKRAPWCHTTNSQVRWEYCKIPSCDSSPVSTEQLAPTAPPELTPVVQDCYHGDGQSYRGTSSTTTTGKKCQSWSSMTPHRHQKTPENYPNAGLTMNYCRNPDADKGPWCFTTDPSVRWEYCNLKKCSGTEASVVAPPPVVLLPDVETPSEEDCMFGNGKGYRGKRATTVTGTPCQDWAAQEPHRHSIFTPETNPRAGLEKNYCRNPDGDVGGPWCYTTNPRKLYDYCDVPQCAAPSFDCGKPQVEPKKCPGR
# Procedure: as §1
# (§3) Human plasmin is purchased from Boehringer Mannheim, Indianapolis, Indiana; nt-PA is purchased as single chain activity reference from American Diagnostica, Greenwich, Conn.; modified-t-PA6 (mt-PA6) is prepared at Eli Lilly and Company by procedure known in the art (See, Burck, et al., J. Biol. Chem., 265, […] (1990). Plasmin chromogenic substrate H--D--Val--Leu--Lys--p--nitroanilide and tissue plasminogen activator (t-PA) substrate H--D--Ile--Pro--Arg--p--nitroanilide are purchased from Kabi Vitrum, Stockholm, Sweden.
# [1] = molecular target: T5, tissue plasminogen activator (t-PA) (Homo sapiens, UniProt P00750); test: Fibrinolytic protease selectivity, Kass, t-PA chromogenic assay; format: biochemical; details: apparent association constant
# T5 construct: purchased American Diagnostica, Greenwich, Conn
# T5 sequence (P00750 36-562): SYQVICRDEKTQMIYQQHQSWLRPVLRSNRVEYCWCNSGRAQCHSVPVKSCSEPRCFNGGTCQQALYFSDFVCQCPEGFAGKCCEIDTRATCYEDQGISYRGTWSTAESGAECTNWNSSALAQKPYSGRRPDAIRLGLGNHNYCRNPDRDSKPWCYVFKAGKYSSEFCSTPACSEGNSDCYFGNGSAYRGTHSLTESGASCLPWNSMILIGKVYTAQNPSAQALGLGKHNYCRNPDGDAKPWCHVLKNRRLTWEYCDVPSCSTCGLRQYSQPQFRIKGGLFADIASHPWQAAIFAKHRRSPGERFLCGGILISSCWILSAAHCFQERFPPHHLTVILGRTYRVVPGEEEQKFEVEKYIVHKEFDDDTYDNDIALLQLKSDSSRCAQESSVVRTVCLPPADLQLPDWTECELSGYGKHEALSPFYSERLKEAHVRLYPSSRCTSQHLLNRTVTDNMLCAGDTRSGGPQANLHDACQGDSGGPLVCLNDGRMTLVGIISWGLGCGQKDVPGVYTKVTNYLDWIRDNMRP
# Procedure: as §1, §3
# human plasma [2] = test: Human plasma anticoagulation, thrombin time (TT); details: concentration required to double the thrombin time, linear extrapolation
# Procedure: (§4) Dog plasma and rat plasma is obtained from conscious mixed-breed hounds (either sex, Hazelton-LRE, Kalamazoo, Mich., U.S.A.) or from anesthetized male Sprague-Dawley rats (Harlan Sprague-Dawley, Inc., Indianapolis, Ind., U.S.A.) by venipuncture into 3.8 percent citrate. Fibrinogen is prepared from in-date ACD human blood as the fraction I-2 according to previous procedures and specifications. Smith, Biochem. J., 185, 1-11 (1980); and Smith, et al., Biochemistry, 11, 2958-2967 (1972). Human fibrinogen is also purchased as 98 percent pure/plasmin free from American Diagnostica, Greenwich, Conn. Coagulation reagents ACTIN, Thromboplastin, and Human plasma are from Baxter Healthcare Corp., Dade Division, Miami, Fla. Bovine thrombin from Parke-Davis ([…], Mich.) is used for coagulation assays in plasma.
# (§5) Coagulation assay procedures are as previously described. Smith, et al., Thrombosis Research, 50, 163-174 (1988). A CoAScreener coagulation instrument (American LABor, Inc.) is used for all coagulation assay measurements. The prothrombin time (PT) is measured by adding 0.05 mL saline and 0.05 mL Thromboplastin-C reagent to 0.05 mL test plasma. The activated partial thromboplastin time (APTT) is measured by incubation of 0.05 mL test plasma with 0.05 mL Actin reagent for 120 seconds followed by 0.05 mL CaCl2 (0.02 M). The thrombin time (TT) is measured by adding 0.05 mL saline and 0.05 mL thrombin (10 NIH units/mL) to 0.05 mL test plasma. The compounds of formula I are added to human or animal plasma over a wide range of concentrations to determine prolongation effects on the APTT, PT, and TT assays. Linear extrapolations are performed to estimate the concentrations required to double the clotting time for each assay.
# human plasma [3] = test: Human plasma anticoagulation, activated partial thromboplastin time (APTT); details: concentration required to double the APTT, linear extrapolation
# Procedure: as §4, §5
# human plasma [4] = test: Human plasma anticoagulation, prothrombin time (PT); details: concentration required to double the PT, linear extrapolation
# Procedure: as §4, §5
Structure (SMILES),Enzyme Kass Human Thrombin (human thrombin) [L/mol × 10^6],Enzyme Kass Xa (factor Xa) [L/mol × 10^6],Enzyme Kass Trypsin (Bovine trypsin) [L/mol × 10^6],Enzyme Kass Plasmin (Human plasmin) [L/mol × 10^6],Enzyme Kass t-PA [1] [L/mol × 10^6],Human Plasma Anticoagulation 2 × Clotting time TT (human plasma [2]) [ng/mL],Human Plasma Anticoagulation 2 × Clotting time APTT (human plasma [3]),Human Plasma Anticoagulation 2 × Clotting time PT (human plasma [4])
"Cc1ccccc1N(CC(=O)N[C@H](C=O)CCCN=C(N)N)C(=O)[C@H]1CCCCN1.Cl.Cl [Example 12, D--hPro--N(o--Me--Ph)Gly--ArgH.2HCl]",3.3,0.14,0.55,0.060,0.0064,370,"4,900 ng/mL","8,200 ng/mL"
"Cl.Cl.N=C(N)NCCC[C@@H](C=O)NC(=O)CN(CCC(=O)O)C(=O)[C@H]1CCCCN1 [Example 13, D--hPro--N(CH2 CH2 COOH)Gly--ArgH.2HCl]",0.83,0.051,0.48,0.015,0.001,800,"21,000 ng/mL","27,000 ng/mL"
"Cl.Cl.N=C(N)NCCC[C@@H](C=O)NC(=O)CN(CCCC(=O)O)C(=O)[C@H]1CCCCN1 [Example 14, D--hPro--N(CH2 CH2 CH2 COOH)Gly--ArgH.2HCl]",1.2,0.062,0.60,0.016,0.001,700,"20,000 ng/mL","30,000 ng/mL"
"Cl.Cl.N=C(N)NCCC[C@@H](C=O)NC(=O)CN(CCCCC(=O)O)C(=O)[C@H]1CCCCN1 [Example 15, D--hPro--N(CH2 CH2 CH2 CH2 COOH)Gly--ArgH.2HCl]",1.8,0.078,0.99,0.020,0.001,670,"15,000 ng/mL","21,000 ng/mL"
"CCS(=O)(=O)N[C@H](Cc1ccccc1)C(=O)N(C)CC(=O)N[C@H](C=O)CCCNC(=N)N.Cl.Cl [Example 16, N-(ethylsulfonyl)-D-phenylalanyl-N-methylglycyl-L-argininal dihydrochloride]",37,3.3,22,1.5,1.2,30,"1,200 ng/mL","1,600 ng/mL"
"CNCC(=O)N(CCc1ccccc1)CC(=O)N[C@H](C=O)CCCNC(=N)N.Cl.Cl [Example 17, Sar--N(CH2 CH2 Ph)Gly--ArgH.2HCl]",2.9,2.2,0.38,0.20,0.001,150,"2,200 ng/mL","2,700 ng/mL"
"Cl.Cl.NC(N)=NCCC[C@@H](C=O)NC(=O)CN(CCc1ccccc1)C(=O)[C@H]1CCCN1 [Example 18, D--Pro--N(CH2 CH2 Ph)Gly--ArgH.2HCl]",5.1,0.47,1.1,0.34,0.001,170,"3,300 ng/mL","3,900 ng/mL"
"Cl.Cl.N=C(N)NCCC[C@@H](C=O)NC(=O)CN(CCc1ccccc1)C(=O)[C@@H]1CCCN1 [Example 19, L--Pro--N(CH2 CH2 Ph)Gly--ArgH.2HCl]",0.64,0.11,0.22,0.22,< 0.001,490,"10,000 ng/mL","10,000 ng/mL"

# — patent US6090787A, “Antithrombotic agents” (Eli Lilly and Company, priority 1999, dated 2000)
